Measurements as given in patent US9255100B2 (BAYER INTELLECTUAL PROPERTY GMBH, priority 2010, dated 2016).

Biological target: T1, N-terminally GST-tagged human full length recombinant Mps-1 kinase (Homo sapiens, UniProt P33981)
T1 construct: N-terminally GST-tagged human full length recombinant Mps-1 kinase; purchased Invitrogen, Karslruhe, Germany PV4071
T1 sequence (P33981 1-857): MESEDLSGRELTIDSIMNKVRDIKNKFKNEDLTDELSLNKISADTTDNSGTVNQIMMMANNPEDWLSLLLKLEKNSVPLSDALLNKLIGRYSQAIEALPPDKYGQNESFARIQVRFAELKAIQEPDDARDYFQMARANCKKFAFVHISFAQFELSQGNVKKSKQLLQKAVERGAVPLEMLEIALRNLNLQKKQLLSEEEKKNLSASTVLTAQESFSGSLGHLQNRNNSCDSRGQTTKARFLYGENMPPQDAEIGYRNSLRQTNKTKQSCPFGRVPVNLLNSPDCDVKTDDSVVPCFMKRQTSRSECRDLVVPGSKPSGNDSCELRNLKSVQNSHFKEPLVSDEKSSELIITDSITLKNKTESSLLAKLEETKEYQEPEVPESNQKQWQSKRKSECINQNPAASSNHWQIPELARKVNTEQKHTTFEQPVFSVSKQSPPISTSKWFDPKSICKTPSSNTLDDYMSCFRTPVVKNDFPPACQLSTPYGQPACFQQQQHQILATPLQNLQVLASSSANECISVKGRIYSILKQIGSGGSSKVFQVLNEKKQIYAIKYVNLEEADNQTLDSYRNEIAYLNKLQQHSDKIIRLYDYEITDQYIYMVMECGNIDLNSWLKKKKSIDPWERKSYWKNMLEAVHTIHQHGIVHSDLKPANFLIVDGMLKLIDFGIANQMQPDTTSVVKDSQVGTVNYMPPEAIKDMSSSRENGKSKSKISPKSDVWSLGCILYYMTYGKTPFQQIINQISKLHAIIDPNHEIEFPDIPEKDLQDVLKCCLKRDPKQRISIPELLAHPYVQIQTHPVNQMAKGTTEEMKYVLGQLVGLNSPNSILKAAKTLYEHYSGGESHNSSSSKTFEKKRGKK
Test: Mps-1 kinase assay (TR-FRET)
Format: biochemical
Details: Mps1 IC50 [nM], 10 μM ATP, 1 μM peptide substrate, 60 min at 22° C.
Summary of the method: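 Read-out: TR-FRET from Europium-labelled anti-phospho(Ser/Thr) antibody to SA-XLent after 1 h detection incubation at 22° C. Inhibition of kinase activity measured.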

Row | SMILES | IC50 [nM]
1 | Cc1cc(-c2cnc3c(NCC(C)(C)O)cc(SCCC(C)(C)C)nn23)ccc1C(=O)NC1CC1 [Example 217, N-cyclopropyl-4-{6-[(3,3-dimethylbutyl)sulfanyl]-8-[(2-hydroxy-2-methylpropyl)amino]imidazo[1,2-b]pyridazin-3-yl}-2-methylbenzamide] | 3.6
2 | Cc1cc(F)cc(Nc2cc(NCCC(F)(F)F)c3ncc(-c4ccc(C(=O)NC5CC5)c(C)c4)n3n2)c1 [Example 371, N-cyclopropyl-4-{6-[(3-fluoro-5-methylphenyl)amino]-8-[(3,3,3-trifluoropropyl)amino]imidazo[1,2-b]pyridazin-3-yl}-2-methylbenzamide] | 0.2
3 | Cc1cc(-c2cnc3c(NCC(C)(C)O)cc(Oc4ccccn4)nn23)ccc1C(=O)NC1CC1 [Example 274, N-cyclopropyl-4-{8-[(2-hydroxy-2-methylpropyl)amino]-6-(pyridin-2-yloxy)imidazo[1,2-b]pyridazin-3-yl}-2-methylbenzamide] | 73.8
4 | Cc1cc(-c2cnc3c(NCC(C)(C)O)cc(-c4ccc(F)cc4)nn23)ccc1C(=O)NC1CC1 [Example 7, N-cyclopropyl-4-{6-(4-fluorophenyl)-8-[(2-hydroxy-2-methylpropyl)amino]imidazo[1,2-b]pyridazin-3-yl}-2-methylbenzamide] | 1.2
5 | Cc1cc(-c2cnc3c(NCC(C)(C)O)cc(-c4cncc(C#N)c4)nn23)ccc1C(=O)NC1CC1 [Example 234, 4-{6-(5-cyanopyridin-3-yl)-8-[(2-hydroxy-2-methylpropyl)amino]imidazo[1,2-b]pyridazin-3-yl}-N-cyclopropyl-2-methylbenzamide] | 6.1
6 | Cc1cc(-c2cnc3c(NCC(C)(C)O)cc(Sc4nnc[nH]4)nn23)ccc1C(=O)NC1CC1 [Example 316, N-cyclopropyl-4-{8-[(2-hydroxy-2-methylpropyl)amino]-6-(4H-1,2,4-tri-azol-3-ylsulfanyl)imidazo [1,2-b]pyridazin-3-yl}-2-methylbenzamide] | 118
7 | Cc1cc(-c2cnc3c(NCCCN4CCOCC4)cc(Oc4cccc(F)c4)nn23)ccc1C(=O)NC1CC1 [Example 506, N-cyclopropyl-4-[6-(3-fluoro-phenoxy)-8-{[3-(morpholin-4-yl)propyl]amino}imidazo[1,2-b]pyridazin-3-yl]-2-methyl-benzamide] | 0.1
8 | Cc1ccc(O)cc1Nc1cc(NCCC(F)(F)F)c2ncc(-c3ccc(C(=O)NC4CC4)c(C)c3)n2n1 [Example 443, N-cyclopropyl-4-{6-[(5-hydroxy-2-methylphenyl)amino]-8-[(3,3,3-trifluoropropyl)amino]imidazo[1,2-b]pyridazin-3-yl}-2-methylbenzamide] | 0.1
9 | Fc1ccc(-c2cc(NCCC(F)(F)F)c3ncc(-c4ccc(-c5cnc(C6CC6)[nH]5)cc4)n3n2)cc1 [Example 6, 3-[4-(2-Cyclopropyl-1H-imidazol-5-yl)phenyl]-6-(4-fluorophenyl)-N-(3,3,3-trifluoropropyl)imidazo[1,2-b]pyridazin-8-amine] | 43.6
10 | Cc1cc(-c2cnc3c(NCC4CC(F)(F)C4)cc(Oc4cccc(F)c4)nn23)ccc1C(=O)NC1CC1 [Example 330, N-cyclopropyl-4-[8-{[(3,3-difluorocyclobutyl)methyl]amino}-6-(3-fluoro-phenoxy)imidazo[1,2-b]pyridazin-3-yl]-2-methyl-benzamide] | 0.2
11 | Cc1cc(-c2cnc3c(NCC4CN(C(=O)OC(C)(C)C)C4)cc(-c4ccccc4CO)nn23)ccc1C(=O)NC1CC1 [Example 339, tert-butyl 3-[({3-[4-(cyclopropylcarbamoyl)-3-methylphenyl]-6-[2-(hydroxy-methyl)phenyl]imidazo[1,2-b]pyridazin-8-yl}amino)methyl]azetidine-1-carboxylate] | 95.9
12 | Cc1cc(-c2cnc3c(NCC(C)(C)O)cc(Nc4ccc(CCO)cc4)nn23)ccc1C(=O)NC1CC1 [Example 386, N-cyclopropyl-4-(6-{[4-(2-hydroxyethyl)phenyl]amino}-8-[(2-hydroxy-2-methylpropyl)amino]imidazo[1,2-b]pyridazin-3-yl)-2-methylbenzamide] | 1.5
13 | CC(C)CNc1cc(-c2ccccc2F)nn2c(-c3ccc(C(=O)NC4CC4)cc3)cnc12 [Example 132, N-cyclopropyl-4-{6-(2-fluorophenyl)-8-[(2-methylpropyl)amino]imidazo[1,2-b]pyridazin-3-yl}benzamide] | 1.5
14 | Cc1cc(-c2cnc3c(NCCO)cc(Oc4cccc(F)c4)nn23)ccc1C(=O)NC1CC1 [Example 277, N-cyclopropyl-4-{6-(3-fluorophenoxy)-8-[(2-hydroxyethyl)amino]imidazo[1,2-b]pyridazin-3-yl}-2-methylbenzamide] | < 0.1
15 | COc1cccc(Nc2cc(NCC(C)(C)O)c3ncc(-c4ccc(C(=O)NC5CC5)c(C)c4)n3n2)c1 [Example 403, N-cyclopropyl-4-{8-[(2-hydroxy-2-methylpropyl)amino]-6-[(3-methoxyphenyl)amino]imidazo[1,2-b]pyridazin-3-yl}-2-methylbenzamide] | 1
16 | Cc1cc(-c2cnc3c(NCC(C)(C)O)cc(Oc4ccc(Cl)c(F)c4)nn23)ccc1C(=O)NC1CC1 [Example 95, 4-{6-(4-Chloro-3-fluorophenoxy)-8-[(2-hydroxy-2-methylpropyl)amino]imidazo[1,2-b]pyridazin-3-yl}-N-cyclopropyl-2-methylbenzamide] | 0.3
17 | Cc1cc(-c2cnc3c(NCC(C)(C)O)cc(Nc4ccc(F)cc4Cl)nn23)ccc1C(=O)NC1CC1 [Example 405, 4-{6-[(2-chloro-4-fluorophenyl)amino]-8-[(2-hydroxy-2-methylpropyl)amino]imidazo[1,2-b]pyridazin-3-yl}-N-cyclopropyl-2-methylbenzamide] | 0.2
18 | CC(C)(O)CNc1cc(C2=CCCCC2)nn2c(-c3ccc(C(=S)NC4CC4)cc3)cnc12 [Example 43, 4-{6-(Cyclohex-1-en-1-yl)-8-[(2-hydroxy-2-methylpropyl)amino]imidazo[1,2-b]pyridazin-3-yl}-N-cyclopropylbenzenecarbothioamide] | 21.1
19 | Cc1cc(-c2cnc3c(NC[C@H]4CCCO4)cc(-c4ccnn4C)nn23)ccc1C(=O)NC1CC1 [Example 33, N-cyclopropyl-2-methyl-4-[6-(1-methyl-1H-pyrazol-5-yl)-8-{[(2R)-tetrahydrofuran-2-ylmethyl]amino}imidazo[1,2-b]pyridazin-3-yl]benzamide] | 1.5
20 | Cc1cc(-c2cnc3c(NCC(C)(C)O)cc(Oc4ccc(F)c(F)c4)nn23)ccc1C(=O)NC1CC1 [Example 254, N-cyclopropyl-4-{6-(3,4-difluorophenoxy)-8-[(2-hydroxy-2-methylpropyl)amino]imidazo[1,2-b]pyridazin-3-yl}-2-methylbenzamide] | 0.1
21 | Cc1cc(-c2cnc3c(NCC(C)(C)O)cc(Oc4cccc(C#N)c4)nn23)ccc1C(=O)NC1CC1 [Example 82, 4-{6-(3-Cyanophenoxy)-8-[(2-hydroxy-2-methylpropyl)amino]imidazo[1,2-b]pyridazin-3-yl}-N-cyclopropyl-2-methylbenzamide] | 0.3
22 | Cc1cc(-c2cnc3c(NCC4(CO)COC4)cc(Oc4cccc(F)c4)nn23)ccc1C(=O)NC1CC1 [Example 490, N-cyclopropyl-4-[6-(3-fluoro-phenoxy)-8-({[3-(hydroxymethyl)oxetan-3-yl]methyl}amino)imidazo[1,2-b]pyridazin-3-yl]-2-methylbenzamide] | 1.5
